What was measured:
[1] = test system: MOLM-13 cells (human acute myeloid leukemia cells); assay: MOLM-13 Cellular Assay; type: cell-based; conditions: 72 hours exposure, cell viability by CellTiter-Glo
Outline: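 MOLM-13 AML cells, seeded at 5,000/well in RPMI 1640 with 10% FBS, were treated with compounds right after seeding for 72 h at 37 °C, 5% CO2. Viability read by CellTiter-Glo luminescence.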

human DHODH = human DHODH (Homo sapiens (Human), UniProt Q02127); assay: DHODH Enzymatic Assay; type: biochemical; conditions: purified human DHODH, DCIP absorbance, end-point mode; read-out: hDHODH IC50
human DHODH, sequence (Q02127 whole entry): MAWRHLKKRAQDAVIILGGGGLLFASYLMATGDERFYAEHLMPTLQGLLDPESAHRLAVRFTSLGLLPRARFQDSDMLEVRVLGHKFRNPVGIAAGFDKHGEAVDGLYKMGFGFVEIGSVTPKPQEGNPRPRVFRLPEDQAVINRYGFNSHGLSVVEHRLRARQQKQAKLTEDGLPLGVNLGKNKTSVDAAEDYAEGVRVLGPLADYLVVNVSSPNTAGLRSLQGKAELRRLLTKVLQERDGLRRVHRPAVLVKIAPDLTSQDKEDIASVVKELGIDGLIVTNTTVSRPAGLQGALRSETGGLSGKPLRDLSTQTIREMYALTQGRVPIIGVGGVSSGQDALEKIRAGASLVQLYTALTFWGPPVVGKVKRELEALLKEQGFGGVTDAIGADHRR
Outline: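 Purified human DHODH in […] HEPES pH 7.5, 150 mM NaCl, 0.5 mM EDTA, 0.1% Triton X-100; reaction started with substrate mix of 20 mM DHO, 5 mM CoQ6, 1 mM DCIP. End-point read as DCIP reduction (absorbance ~600 nm) after brequinar quench.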

| IC50 [1] | IC50 ([1]; Homo sapiens, MOLM-13, 72 h) | IC50 (human DHODH) | SMILES |
| --- | --- | --- | --- |
| – | 3 nM | 2.1 nM | CCn1c(CO)nn(-c2cc3c(C(C)C)cn(-c4cc(OC)ncc4C)c(=O)c3cc2F)c1=O [Example 113, 6-(4-Ethyl-3-(hydroxymethyl)-5-oxo-4,5-dihydro-1H-1,2,4-triazol-1-yl)-7-fluoro-4-isopropyl-2-(2-methoxy-5-methylpyridin-4-yl)isoquinolin-1(2H)-one] |
| – | 10 nM | 14.8 nM | CCn1c(CO)nn(-c2cc3c(C(C)C)cn(-c4ncccc4C)c(=O)c3cc2F)c1=O [Example 118, 6-(4-Ethyl-3-(hydroxymethyl)-5-oxo-4,5-dihydro-1H-1,2,4-triazol-1-yl)-7-fluoro-4-isopropyl-2-(3-methylpyridin-2-yl)isoquinolin-1(2H)-one] |
| – | 50 nM | 29.2 nM | CCn1c(CO)nn(-c2cc3c(C(C)C)cn(-c4ccnc(OC)c4C)c(=O)c3cc2F)c1=O [Example 129, 6-(4-Ethyl-3-(hydroxymethyl)-5-oxo-4,5-dihydro-1H-1,2,4-triazol-1-yl)-7-fluoro-4-isopropyl-2-(2-methoxy-3-methylpyridin-4-yl)isoquinolin-1(2H)-one] |
| – | 50 nM | 33.7 nM | CCn1c(CO)nn(-c2cc3c(C(C)C)cn(-c4csnc4C)c(=O)c3cc2F)c1=O [Example 131, 6-(4-Ethyl-3-(hydroxymethyl)-5-oxo-4,5-dihydro-1H-1,2,4-triazol-1-yl)-7-fluoro-4-isopropyl-2-(3-methylisothiazol-4-yl)isoquinolin-1(2H)-one] |
| – | 4 nM | 3.72 nM | CCn1c(CO)nn(-c2cc3c(C(C)C)cn(-c4cnsc4C)c(=O)c3cc2F)c1=O [Example 132, 6-(4-Ethyl-3-(hydroxymethyl)-5-oxo-4,5-dihydro-1H-1,2,4-triazol-1-yl)-7-fluoro-4-isopropyl-2-(5-methylisothiazol-4-yl)isoquinolin-1(2H)-one] |
| – | 50 nM | 6.93 nM | CCn1c(CO)nn(-c2cc3c(C(C)C)cn(-c4cc(C)ncc4C)c(=O)c3cc2F)c1=O [Example 135, 2-(2,5-Dimethylpyridin-4-yl)-6-(4-ethyl-3-(hydroxymethyl)-5-oxo-4,5-dihydro-1H-1,2,4-triazol-1-yl)-7-fluoro-4-isopropylisoquinolin-1(2H)-one] |
| – | 8 nM | 4.79 nM | CCn1c(CO)nn(-c2cc3c(C(C)C)cn(-c4cnccc4C)c(=O)c3cc2F)c1=O [Example 136, 6-(4-Ethyl-3-(hydroxymethyl)-5-oxo-4,5-dihydro-1H-1,2,4-triazol-1-yl)-7-fluoro-4-isopropyl-2-(4-methylpyridin-3-yl)isoquinolin-1(2H)-one] |
| – | 8 nM | 8.08 nM | CCn1c(CO)nn(-c2cc3c(C(C)C)cn(-c4ccncc4C)c(=O)c3cc2F)c1=O [Example 137, 6-(4-Ethyl-3-(hydroxymethyl)-5-oxo-4,5-dihydro-1H-1,2,4-triazol-1-yl)-7-fluoro-4-isopropyl-2-(3-methylpyridin-4-yl)isoquinolin-1(2H)-one] |
| – | > 100 nM | 80.4 nM | CCn1c(CO)nn(-c2cc3c(C(C)C)cn(-c4cccnc4C)c(=O)c3cc2F)c1=O [Example 138, 6-(4-Ethyl-3-(hydroxymethyl)-5-oxo-4,5-dihydro-1H-1,2,4-triazol-1-yl)-7-fluoro-4-isopropyl-2-(2-methylpyridin-3-yl)isoquinolin-1(2H)-one] |
| – | > 100 nM | 35.4 nM | CCn1c(CO)nn(-c2cc3c(C(C)C)cn(-c4cc(O)ncc4C)c(=O)c3cc2F)c1=O [Example 139, 6-(4-Ethyl-3-(hydroxymethyl)-5-oxo-4,5-dihydro-1H-1,2,4-triazol-1-yl)-7-fluoro-2-(2-hydroxy-5-methylpyridin-4-yl)-4-isopropylisoquinolin-1(2H)-one] |
| – | > 100 nM | 10.5 nM | CCn1c(CO)nn(-c2cc3c(C(C)C)cn(-c4ccnc(O)c4C)c(=O)c3cc2F)c1=O [Example 141, 6-(4-Ethyl-3-(hydroxymethyl)-5-oxo-4,5-dihydro-1H-1,2,4-triazol-1-yl)-7-fluoro-2-(2-hydroxy-3-methylpyridin-4-yl)-4-isopropylisoquinolin-1(2H)-one] |

Further lines, the molecule ahead of its results:

| SMILES | IC50 [1] | IC50 ([1]; Homo sapiens, MOLM-13, 72 h) | IC50 (human DHODH) |
| --- | --- | --- | --- |
| CCn1c(CO)nn(-c2cc3c(C(C)C)cn(-c4ccccc4C(F)F)c(=O)c3cc2F)c1=O [Example 105, 2-(2-(Difluoromethyl)phenyl)-6-(4-ethyl-3-(hydroxymethyl)-5-oxo-4,5-dihydro-1H-1,2,4-triazol-1-yl)-7-fluoro-4-isopropylisoquinolin-1(2H)-one] | 0.2 nM | ≤ 0.2 nM | 0.528 nM |
| CCn1c(CO)nn(-c2cc3c(C(C)C)cn(-c4ccnc(OC)c4Cl)c(=O)c3cc2F)c1=O [Example 106, 2-(3-Chloro-2-methoxypyridin-4-yl)-6-(4-ethyl-3-(hydroxymethyl)-5-oxo-4,5-dihydro-1H-1,2,4-triazol-1-yl)-7-fluoro-4-isopropylisoquinolin-1(2H)-one] | – | 10 nM | 4.88 nM |
| CCn1c(CO)nn(-c2cc3c(C(C)C)cn(C4CCCCC4)c(=O)c3cc2F)c1=O [Example 107, 2-Cyclohexyl-6-(4-ethyl-3-(hydroxymethyl)-5-oxo-4,5-dihydro-1H-1,2,4-triazol-1-yl)-7-fluoro-4-isopropylisoquinolin-1(2H)-one] | – | 6 nM | 2.07 nM |
| CCn1c(CO)nn(-c2cc3c(C(C)C)cn(-c4nc(C)ccc4Cl)c(=O)c3cc2F)c1=O [Example 108, 2-(3-Chloro-6-methylpyridin-2-yl)-6-(4-ethyl-3-(hydroxymethyl)-5-oxo-4,5-dihydro-1H-1,2,4-triazol-1-yl)-7-fluoro-4-isopropylisoquinolin-1(2H)-one] | – | 6 nM | 3.07 nM |
| CCn1c(CO)nn(-c2cc3c(C(C)C)cn(C4CCCC4)c(=O)c3cc2F)c1=O [Example 109, 2-Cyclopentyl-6-(4-ethyl-3-(hydroxymethyl)-5-oxo-4,5-dihydro-1H-1,2,4-triazol-1-yl)-7-fluoro-4-isopropylisoquinolin-1(2H)-one] | – | 9 nM | 5.37 nM |
| CCn1c(CO)nn(-c2cc3c(C(C)C)cn(-c4nccc(OC)c4Cl)c(=O)c3cc2F)c1=O [Example 110, 2-(3-Chloro-4-methoxypyridin-2-yl)-6-(4-ethyl-3-(hydroxymethyl)-5-oxo-4,5-dihydro-1H-1,2,4-triazol-1-yl)-7-fluoro-4-isopropylisoquinolin-1(2H)-one] | – | 20 nM | 10.4 nM |
| CCn1c(CO)nn(-c2cc3c(C(C)C)cn([C@@H]4CCCC[C@@H]4C)c(=O)c3cc2F)c1=O [Example 111, 6-(4-Ethyl-3-(hydroxymethyl)-5-oxo-4,5-dihydro-1H-1,2,4-triazol-1-yl)-7-fluoro-4-isopropyl-2-((1R,2S)-2-methylcyclohexyl)isoquinolin-1(2H)-one] | – | 0.7 nM | 3.54 nM |
| CCn1c(CO)nn(-c2cc3c(C(C)C)cn(C(COC)COC)c(=O)c3cc2F)c1=O [Example 112, 2-(1,3-Dimethoxypropan-2-yl)-6-(4-ethyl-3-(hydroxymethyl)-5-oxo-4,5-dihydro-1H-1,2,4-triazol-1-yl)-7-fluoro-4-isopropylisoquinolin-1(2H)-one] | – | 30 nM | 35.3 nM |
| CCn1c(CO)nn(-c2cc3c(C(C)C)cn([C@H]4CCCC[C@H]4C)c(=O)c3cc2F)c1=O [Example 114, 6-(4-Ethyl-3-(hydroxymethyl)-5-oxo-4,5-dihydro-1H-1,2,4-triazol-1-yl)-7-fluoro-4-isopropyl-2-((1S,2R)-2-methylcyclohexyl)isoquinolin-1(2H)-one] | – | 3 nM | 11.6 nM |
| CCn1c(CO)nn(-c2cc3c(C(C)C)cn(CC4CC4)c(=O)c3cc2F)c1=O [Example 115, 2-(Cyclopropylmethyl)-6-(4-ethyl-3-(hydroxymethyl)-5-oxo-4,5-dihydro-1H-1,2,4-triazol-1-yl)-7-fluoro-4-isopropylisoquinolin-1(2H)-one] | – | 80 nM | 50.9 nM |
| CCC(COC)n1cc(C(C)C)c2cc(-n3nc(CO)n(CC)c3=O)c(F)cc2c1=O (centres unmarked) [Example 116, 6-(4-Ethyl-3-(hydroxymethyl)-5-oxo-4,5-dihydro-1H-1,2,4-triazol-1-yl)-7-fluoro-4-isopropyl-2-(1-methoxybutan-2-yl)isoquinolin-1(2H)-one] | – | 20 nM | 30.7 nM |
| CCC(CC)n1cc(C(C)C)c2cc(-n3nc(CO)n(CC)c3=O)c(F)cc2c1=O [Example 122, 6-(4-Ethyl-3-(hydroxymethyl)-5-oxo-4,5-dihydro-1H-1,2,4-triazol-1-yl)-7-fluoro-4-isopropyl-2-(pentan-3-yl)isoquinolin-1(2H)-one] | – | 10 nM | 13.4 nM |
| CCn1c(CO)nn(-c2cc3c(C(C)C)cn(C45CCC(CC4)C5)c(=O)c3cc2F)c1=O [Example 128, 2-(Bicyclo[2.2.1]heptan-1-yl)-6-(4-ethyl-3-(hydroxymethyl)-5-oxo-4,5-dihydro-1H-1,2,4-triazol-1-yl)-7-fluoro-4-isopropylisoquinolin-1(2H)-one] | – | 7 nM | 19 nM |
| CCn1c(CO)nn(-c2nc3c(C(C)C)cn(-c4ccccc4OC)c(=O)c3cc2F)c1=O [Example 130, 2-(4-Ethyl-3-(hydroxymethyl)-5-oxo-4,5-dihydro-1H-1,2,4-triazol-1-yl)-3-fluoro-8-isopropyl-6-(2-methoxyphenyl)-1,6-naphthyridin-5(6H)-one] | – | 0.9 nM | 0.885 nM |
| CCn1c(CO)nn(-c2nc3c(C(C)C)cn(-c4ccccc4C(F)F)c(=O)c3cc2F)c1=O [Example 140] | – | 1 nM | 1.13 nM |

— patent US11505536B2, “Dihydroorotate dehydrogenase inhibitors” (Janssen Biotech, Inc., priority 2019, dated 2022)
